These results are taken from patent publication US20260184710A1, “CASITAS B-LINEAGE LYMPHOMA PROTOONCOGENE B (CBL-B) DEGRADING COMPOUNDS AND ASSOCIATED METHODS OF USE” (Arvinas Operations, Inc., priority 2022, published 2026).

In this assay the target is T1, Cbl-b (Homo sapiens, UniProt Q13191).
T1 construct: Cbl-b-HiBit KI Jurkat Cells were purchased from Promega; host or cells: Cbl-b-HiBiT knock-in Jurkat cells
Description: Cbl-b Degradation Method B (Nano-Glo HiBiT lytic detection). The assay is classed as cell-based. As to conditions: Cbl-b-HiBit KI Jurkat Cells, incubated at least 6-24 hours; for DC50: half maximal degradation, read-out: Cbl-b Degredation Method B IC50; for Dmax: maximum degradation observed, read-out: Cbl-b Degredation Method B Dmax (%). The protocol: Cbl-b Degradation Method B [table] Cbl-b-HiBit KI Jurkat Cells were purchased from Promega, and cell media consisted of RPMI 1640 with 10% […] and 1% pen/strep. The cells were counted, measured for viability, and 35 μL of the cell solution was seeded into 384 well flat bottom plates at a ratio of 20,000 cells per 35 μL. After which, the plates were incubated for ˜24 hours at 37° C. and 5% CO2. Compounds were ordered from Evotec in a 384 well plate at a 1 mM top concentration in DMSO and serially diluted 1:3 in DMSO for an 11-point dose response. Using the Bravo instrument, 1 uL of compound solution or DMSO was transferred to 125 uL of media. Each well was treated with 5 μL of compound plus media mixture or DMO and subsequently incubated for at least 6-24 hours at 37° C. and 5% CO2. After incubation, 30 μL of either NanoGlo media was added to each cell, and the plates read on the Synergy Neo2 machine. The concentration of an exemplary compound that leads to half maximal degradation (DC50) as well as the maximum degradation observed (Dmax, conventionally expressed as a percentage of control) is shown below in Table 2.

T1 sequence (Q13191 whole entry): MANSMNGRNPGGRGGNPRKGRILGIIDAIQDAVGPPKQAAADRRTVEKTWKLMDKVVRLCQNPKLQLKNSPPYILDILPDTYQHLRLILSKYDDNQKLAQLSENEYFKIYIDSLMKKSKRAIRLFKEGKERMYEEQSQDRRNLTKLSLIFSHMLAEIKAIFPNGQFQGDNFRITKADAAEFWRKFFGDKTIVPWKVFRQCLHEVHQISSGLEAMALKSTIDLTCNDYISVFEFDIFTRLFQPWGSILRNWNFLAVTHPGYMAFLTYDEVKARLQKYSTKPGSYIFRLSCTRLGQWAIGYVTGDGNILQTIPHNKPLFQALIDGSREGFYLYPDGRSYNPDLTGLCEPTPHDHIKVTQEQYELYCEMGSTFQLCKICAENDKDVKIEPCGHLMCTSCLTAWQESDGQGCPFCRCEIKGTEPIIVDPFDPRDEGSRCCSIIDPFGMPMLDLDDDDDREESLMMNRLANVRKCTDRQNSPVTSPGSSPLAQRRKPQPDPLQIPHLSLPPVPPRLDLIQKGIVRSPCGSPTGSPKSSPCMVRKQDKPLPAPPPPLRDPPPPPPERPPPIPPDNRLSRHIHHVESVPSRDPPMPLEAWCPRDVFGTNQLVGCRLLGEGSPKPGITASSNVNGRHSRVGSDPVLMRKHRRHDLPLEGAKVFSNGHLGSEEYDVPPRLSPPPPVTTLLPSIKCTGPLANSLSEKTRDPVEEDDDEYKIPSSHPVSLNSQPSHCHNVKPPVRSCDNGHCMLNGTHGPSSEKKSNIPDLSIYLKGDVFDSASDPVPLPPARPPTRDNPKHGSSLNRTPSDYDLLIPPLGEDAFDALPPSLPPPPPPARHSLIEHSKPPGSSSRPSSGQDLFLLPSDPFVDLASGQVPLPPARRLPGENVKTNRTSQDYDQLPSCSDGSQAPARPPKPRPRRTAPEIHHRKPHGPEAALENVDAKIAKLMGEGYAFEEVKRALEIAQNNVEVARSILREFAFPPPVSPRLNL

As for `CC1c2nc(N3CCC(O[C@H]4CC[C@H](CN5CCN(Cc6cc7c(c(C(F)(F)F)c6)CN(c6cccc(C8(Cc9nncn9C)CCOCC8)c6)C7=O)CC5)CC4)CC3)ccc2C(=O)N1C1CCC(=O)NC1=O` (mixture of isomers) [Example 233, rac-3-[7-methyl-5-oxo-2-(4-{[(1r,4r)-4-[(4-{[2-(3-{4-[(4-methyl-4H-1,2,4-triazol-3-yl)methyl]oxan-4-yl}phenyl)-3-oxo-7-(trifluoromethyl)-2,3-dihydro-1H-isoindol-5-yl]methyl}piperazin-1-yl)methyl]cyclohexyl]oxy}piperidin-1-yl)-5H,6H,7H-pyrrolo[3,4-b]pyridin-6-yl]piperidine-2,6-dione], the DC50 is > 500 nM. For `CCn1cnnc1CC1(c2cccc(N3Cc4c(cc(CN5CCN(C[C@H]6CC[C@H](OC7CCN(c8ccc9c(n8)C(C)N(C8CCC(=O)NC8=O)C9=O)CC7)CC6)CC5)cc4C(F)(F)F)C3=O)c2)COC1` (mixture of isomers) [Example 235, rac-3-[7-methyl-5-oxo-2-(4-{[(1r,4r)-4-[(4-{[2-(3-{3-[(4-ethyl-4H-1,2,4-triazol-3-yl)methyl]oxetan-3-yl}phenyl)-3-oxo-7-(trifluoromethyl)-2,3-dihydro-1H-isoindol-5-yl]methyl}piperazin-1-yl)methyl]cyclohexyl]oxy}piperidin-1-yl)-5H,6H,7H-pyrrolo[3,4-b]pyridin-6-yl]piperidine-2,6-dione], the DC50 is < 5 nM and the maximal degradation (Dmax) was in the range of 35 to 70%. On the same counts, the results for `CC1c2nc(N3CCC(O[C@H]4CC[C@H](CN5CCN(Cc6cc7c(c(C(F)(F)F)c6)CN(c6cccc(C8(Cc9nncn9C)COC8)c6)C7=O)C(C)(C)C5)CC4)CC3)ccc2C(=O)N1C1CCC(=O)NC1=O` (relative stereo) [Example 246, rel-3-[7-methyl-5-oxo-2-(4-{[(1r,4r)-4-[(3,3-dimethyl-4-{[2-(3-{3-[(4-methyl-4H-1,2,4-triazol-3-yl)methyl]oxetan-3-yl}phenyl)-3-oxo-7-(trifluoromethyl)-2,3-dihydro-1H-isoindol-5-yl]methyl}piperazin-1-yl)methyl]cyclohexyl]oxy}piperidin-1-yl)-5H,6H,7H-pyrrolo[3,4-b]pyridin-6-yl]piperidine-2,6-dione] are < 5 nM and 35 to 70%. Consider `CC1c2nc(N3CCC(O[C@H]4CC[C@H](CN5CCN(Cc6cc(C(F)(F)F)c7cn(-c8cccc(C9(Cc%10nncn%10C)CC9)c8)nc7c6)C(C)(C)C5)CC4)CC3)ccc2C(=O)N1C1CCC(=O)NC1=O` (relative stereo) [Example 253, rel-3-[7-methyl-5-oxo-2-(4-{[(1r,4r)-4-[(3,3-dimethyl-4-{[2-(3-{1-[(4-methyl-4H-1,2,4-triazol-3-yl)methyl]cyclopropyl}phenyl)-4-(trifluoromethyl)-2H-indazol-6-yl]methyl}piperazin-1-yl)methyl]cyclohexyl]oxy}piperidin-1-yl)-5H,6H,7H-pyrrolo[3,4-b]pyridin-6-yl]piperidine-2,6-dione], for which the DC50 was > 500 nM. Still for that read-out and setting: under `CC1c2nc(N3CCC(O[C@H]4CC[C@H](CN5CCN(Cc6cc(C(F)(F)F)c7cn(-c8cccc(C9(Cc%10nncn%10C)CCC9)c8)nc7c6)C(C)(C)C5)CC4)CC3)ccc2C(=O)N1C1CCC(=O)NC1=O` (relative stereo) [Example 255, rel-3-[7-methyl-5-oxo-2-(4-{[(1r,4r)-4-[(3,3-dimethyl-4-{[2-(3-{1-[(4-methyl-4H-1,2,4-triazol-3-yl)methyl]cyclobutyl}phenyl)-4-(trifluoromethyl)-2H-indazol-6-yl]methyl}piperazin-1-yl)methyl]cyclohexyl]oxy}piperidin-1-yl)-5H,6H,7H-pyrrolo[3,4-b]pyridin-6-yl]piperidine-2,6-dione] stands > 500 nM. `C[C@@H]1CN(CC2CCC(OC3CCN(c4ccc5c(n4)[C@@H](C)N(C4CCC(=O)NC4=O)C5=O)CC3)CC2)CCN1Cc1cc2c(c(C(F)(F)F)c1)CN(c1cccc([C@]3(Cc4nncn4C)C[C@H](C#N)C3)c1)C2=O` (single isomer, unassigned) [Example 239, (1rs&,3rs&)-3-[3-(6-{[(2R)-2-methyl-4-{[(1rs,4rs)-4-({1-[(7R*)-6-(2,6-dioxopiperidin-3-yl)-7-methyl-5-oxo-5H,6H,7H-pyrrolo[3,4-b]pyridin-2-yl]piperidin-4-yl}oxy)cyclohexyl]methyl}piperazin-1-yl]methyl}-1-oxo-4-(trifluoromethyl)-2,3-dihydro-1H-isoindol-2-yl)phenyl]-3-[(4-methyl-4H-1,2,4-triazol-3-yl)methyl]cyclobutane-1-carbonitrile]: the DC50 was < 5 nM and the Dmax is > 70%.

With `C[C@@H]1CN(CC2CCC(OC3CCN(c4ccc5c(n4)[C@@H](C)N(C4CCC(=O)NC4=O)C5=O)CC3)CC2)CCN1Cc1cc2c(c(C(F)(F)F)c1)CN(c1cccc([C@]3(Cc4nncn4C)C[C@H](C#N)C3)c1)C2=O` (single isomer, unassigned) [Example 240, (1rs&,3rs&)-3-[3-(6-{[(2R)-2-methyl-4-{[(1rs,4rs)-4-({1-[(7R*)-6-(2,6-dioxopiperidin-3-yl)-7-methyl-5-oxo-5H,6H,7H-pyrrolo[3,4-b]pyridin-2-yl]piperidin-4-yl}oxy)cyclohexyl]methyl}piperazin-1-yl]methyl}-1-oxo-4-(trifluoromethyl)-2,3-dihydro-1H-isoindol-2-yl)phenyl]-3-[(4-methyl-4H-1,2,4-triazol-3-yl)methyl]cyclobutane-1-carbonitrile], the DC50 was > 500 nM.

Turning to `C[C@@H]1c2nc(N3CCC(O[C@H]4CC[C@H](CN5CCN(Cc6cc7c(c(C(F)(F)F)c6)CN(c6cccc(C8(Cc9nncn9C)CC(C#N)C8)c6)C7=O)[C@@H](C)C5)CC4)CC3)ccc2C(=O)N1C1CCC(=O)NC1=O` (single isomer, unassigned) [Example 247, (1r***,3r***)-3-[3-(6-{[(2S)-2-methyl-4-{[(1r**,4r**)-4-({1-[(7R*)-6-(2,6-dioxopiperidin-3-yl)-7-methyl-5-oxo-5H,6H,7H-pyrrolo[3,4-b]pyridin-2-yl]piperidin-4-yl}oxy)cyclohexyl]methyl}piperazin-1-yl]methyl}-1-oxo-4-(trifluoromethyl)-2,3-dihydro-1H-isoindol-2-yl)phenyl]-3-[(4-methyl-4H-1,2,4-triazol-3-yl)methyl]cyclobutane-1-carbonitrile], the DC50 was < 5 nM and the greatest degradation seen (Dmax) is > 70%. Take `C[C@@H]1c2nc(N3CCC(O[C@H]4CC[C@H](CN5CCN(Cc6cc7c(c(C(F)(F)F)c6)CN(c6cccc(C8(Cc9nncn9C)CC(C#N)C8)c6)C7=O)[C@@H](C)C5)CC4)CC3)ccc2C(=O)N1C1CCC(=O)NC1=O` (single isomer, unassigned) [Example 248, (1r***,3r***)-3-[3-(6-{[(2S)-2-methyl-4-{[(1r**,4r**)-4-({1-[(7R*)-6-(2,6-dioxopiperidin-3-yl)-7-methyl-5-oxo-5H,6H,7H-pyrrolo[3,4-b]pyridin-2-yl]piperidin-4-yl}oxy)cyclohexyl]methyl}piperazin-1-yl]methyl}-1-oxo-4-(trifluoromethyl)-2,3-dihydro-1H-isoindol-2-yl)phenyl]-3-[(4-methyl-4H-1,2,4-triazol-3-yl)methyl]cyclobutane-1-carbonitrile]: the DC50 is > 500 nM. The same measure, in the same setting: under `Cn1cnnc1CC1(c2cccc(N3Cc4c(cc(CN5CCC[C@H](CN6CC[C@@H](OC7CCN(c8ccc9c(c8F)CN(C8CCC(=O)NC8=O)C9=O)CC7)CC6(C)C)C5)cc4C(F)(F)F)C3=O)c2)CC(C#N)C1` (single isomer, unassigned) [Example 290, (1r**,3r**)-3-[3-(6-{[(3S)-3-{[(4R*)-4-({1-[2-(2,6-dioxopiperidin-3-yl)-4-fluoro-1-oxo-2,3-dihydro-1H-isoindol-5-yl]piperidin-4-yl}oxy)-2,2-dimethylpiperidin-1-yl]methyl}piperidin-1-yl]methyl}-1-oxo-4-(trifluoromethyl)-2,3-dihydro-1H-isoindol-2-yl)phenyl]-3-[(4-methyl-4H-1,2,4-triazol-3-yl)methyl]cyclobutane-1-carbonitrile] stands > 500 nM; under `Cn1cnnc1CC1(c2cccc(N3Cc4c(cc(CN5CCC[C@H](CN6CC[C@@H](OC7CCN(c8ccc9c(c8F)CN(C8CCC(=O)NC8=O)C9=O)CC7)CC6(C)C)C5)cc4C(F)(F)F)C3=O)c2)CC(C#N)C1` (single isomer, unassigned) [Example 291, (1r**,3r**)-3-[3-(6-{[(3S)-3-{[(4R*)-4-({1-[2-(2,6-dioxopiperidin-3-yl)-4-fluoro-1-oxo-2,3-dihydro-1H-isoindol-5-yl]piperidin-4-yl}oxy)-2,2-dimethylpiperidin-1-yl]methyl}piperidin-1-yl]methyl}-1-oxo-4-(trifluoromethyl)-2,3-dihydro-1H-isoindol-2-yl)phenyl]-3-[(4-methyl-4H-1,2,4-triazol-3-yl)methyl]cyclobutane-1-carbonitrile], > 500 nM.

One may read the Dmax as the largest share of the target that was removed.
